The IC50 is the concentration that gives 50% inhibition. Higher therefore signals weaker potency.

Among the data in ChEMBL document CHEMBL1136544, “3-(2-carboxyethyl)-4,6-dichloro-1H-indole-2-carboxylic acid: an allosteric inhibitor of fructose-1,6-bisphosphatase at the AMP site” (Bioorg Med Chem Lett, 2003) are IC50 values, retold here.

Assay [1] is described as follows: Inhibitory activity against Fructose-1,6-bisphosphatase (F16BPase) in human liver. Type of assay: tissue-based.
Assay [2] addresses T1, Fructose-1,6-bisphosphatase 1 (Sus scrofa, UniProt P00636).
T1 sequence (P00636 whole entry): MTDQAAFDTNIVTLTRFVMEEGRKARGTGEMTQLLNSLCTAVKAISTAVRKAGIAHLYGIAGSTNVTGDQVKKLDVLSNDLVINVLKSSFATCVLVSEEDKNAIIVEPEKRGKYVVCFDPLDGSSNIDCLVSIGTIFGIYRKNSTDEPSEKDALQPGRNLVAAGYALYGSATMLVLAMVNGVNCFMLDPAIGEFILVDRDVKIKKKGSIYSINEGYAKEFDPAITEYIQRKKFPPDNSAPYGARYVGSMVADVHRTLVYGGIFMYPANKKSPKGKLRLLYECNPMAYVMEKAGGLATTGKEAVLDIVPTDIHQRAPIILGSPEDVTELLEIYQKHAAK
The experiment in a line: Inhibitory activity against Fructose-1,6-bisphosphatase (F16BPase) in porcine kidney. Type of assay: tissue-based.

Assay [3] in a line: Inhibitory activity against Fructose-1,6-bisphosphatase (F16BPase) in rabbit liver. Type of assay: tissue-based, Oryctolagus cuniculus.
Assay [4] is described as follows: Inhibitory activity against Fructose-1,6-bisphosphatase (F16BPase) in rat liver. It counts as tissue-based.

Molecule `O=C(O)CCCc1c(C(=O)O)[nH]c2cc(Cl)cc(Cl)c12` displayed an IC50 in assay [1] of 1000 nM.
With `O=C(O)CCc1c(C(=O)NO)[nH]c2cc(Cl)cc(Cl)c12`, the IC50 in assay [1] is over 10000 nM.
As for `O=C(O)Cc1c(C(=O)O)[nH]c2cc(Cl)cc(Cl)c12`, the concentration for half-maximal inhibition (IC50) in assay [1] was 2500 nM.
In turn, `COC(=O)CCc1c(C(=O)O)[nH]c2cc(Cl)cc(Cl)c12` showed an IC50 in assay [1] of 7000 nM.
As for `O=C(O)CCc1c(C(=O)O)[nH]c2cc(Cl)cc(Cl)c12`, the IC50 in assay [2] came to 1000 nM; in assay [3], 210 nM; in assay [4], 11000 nM.
As to `CN(C)C(=O)CCc1c(C(=O)O)[nH]c2cc(Cl)cc(Cl)c12`, in assay [1], the IC50 was found to be 1700 nM. This lies in the single-digit micromolar range.
`Cn1c(C(=O)O)c(CCC(=O)O)c2c(Cl)cc(Cl)cc21` yielded an IC50 in assay [1] of over 10000 nM.
Still for that read-out and setting: the value for `CN(C)C(=O)c1[nH]c2cc(Cl)cc(Cl)c2c1CCC(=O)O` was over 10000 nM; that for `NC(=O)CCc1c(C(=O)O)[nH]c2cc(Cl)cc(Cl)c12` was 2200 nM; that for `O=C(O)c1[nH]c2cc(Cl)cc(Cl)c2c1CCCO` was 2700 nM.
Take `O=C(CCc1c(C(=O)O)[nH]c2cc(Cl)cc(Cl)c12)NO`: in assay [1], the IC50 stood at 1500 nM.
With `CCOC(=O)c1[nH]c2cc(Cl)cc(Cl)c2c1CCC(=O)O`, the half-inhibitory concentration (IC50) in assay [1] was over 10000 nM.
In assay [1], `O=C(O)CCc1c(CO)[nH]c2cc(Cl)cc(Cl)c12` displayed an IC50 of over 10000 nM.
The molecule `O=C(O)CCCCc1c(C(=O)O)[nH]c2cc(Cl)cc(Cl)c12` gave a concentration for half-maximal inhibition (IC50) in assay [1] of 1200 nM.
For the molecule `NC(=O)c1[nH]c2cc(Cl)cc(Cl)c2c1CCC(=O)O`, in assay [1], the IC50 was over 10000 nM.
